According to PMC4104309, “Estradiol Binds to Insulin and Insulin Receptor Decreasing Insulin Binding in vitro” (Frontiers in Endocrinology, 2014):
“And” between values parts separate entries of the source, which are not always exact repeats. Identical values can stand only once. Counter-ions that a name gives are not always drawn. Like-named read-outs stand apart in the source and are kept apart here.

Columns and labels:
[1] = target: recombinant human insulin (Humulin) (Homo sapiens, UniProt P01308); assay: UV spectroscopy binding of sex hormones to recombinant human insulin (Humulin); conditions: for Binding to INS (in words): UV spectroscopic studies, discussion summary
recombinant human insulin (Humulin), sequence (P01308 with tags, fused parts or gaps): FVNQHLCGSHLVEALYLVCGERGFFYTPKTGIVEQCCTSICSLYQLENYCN
recombinant human insulin (Humulin), sequence (P01308 with tags, fused parts or gaps): as above

[2] = target: T1, IR α 424–441 peptide of the human insulin receptor (Homo sapiens, UniProt P06213); assay: UV spectroscopy binding to insulin receptor peptide IR α 424–441
T1 construct: IR α 424–441; made in house; host or cells: chemical peptide synthesis (Michigan State University facility)
From the text: Humulin R was obtained from Lilly.

INS binding [3] = conditions: 10^−8 M 17β-estradiol in the culture medium; ref Hilf et al. ([80]); cited from earlier work
[4] = target: IR α 233–248 peptide of the human insulin receptor (Homo sapiens, UniProt P06213); assay: UV spectroscopy binding to insulin receptor peptide IR α 233–248
[5] = target: IR β 897–916 peptide of the human insulin receptor (Homo sapiens, UniProt P06213); assay: UV spectroscopy binding to insulin receptor peptide IR β 897–916
IR β 897–916 peptide of the human insulin receptor, sequence (P06213 897-916 limits assumed): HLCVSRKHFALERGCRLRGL

[6] = target: IR α 91–103 peptide of the human insulin receptor (Homo sapiens, UniProt P06213); assay: UV spectroscopy binding to insulin receptor peptide IR α 91–103
[7] = Concentration of E2 in E2-saturated buffer with INS–HRP or IR, by capillary electrophoresis; type: physicochemical; conditions: crystals in buffer, at least 48 h room temperature; CE read-out
[8] = target: IR α 105–118 peptide of the human insulin receptor (Homo sapiens, UniProt P06213); assay: UV spectroscopy binding to insulin receptor peptide IR α 105–118
INS binding [9] = conditions: 1 mg dose of E2, within 24 h; ref Hilf et al. ([80]); cited from earlier work
[10] = target: human INS-like growth factor receptor (IGFR) (Homo sapiens, UniProt P08069); assay: UV spectroscopy (serial addition) binding of estradiol to IGFR; conditions: human recombinant IGFR, biphasic
human INS-like growth factor receptor (IGFR), sequence (P08069 with tags, fused parts or gaps): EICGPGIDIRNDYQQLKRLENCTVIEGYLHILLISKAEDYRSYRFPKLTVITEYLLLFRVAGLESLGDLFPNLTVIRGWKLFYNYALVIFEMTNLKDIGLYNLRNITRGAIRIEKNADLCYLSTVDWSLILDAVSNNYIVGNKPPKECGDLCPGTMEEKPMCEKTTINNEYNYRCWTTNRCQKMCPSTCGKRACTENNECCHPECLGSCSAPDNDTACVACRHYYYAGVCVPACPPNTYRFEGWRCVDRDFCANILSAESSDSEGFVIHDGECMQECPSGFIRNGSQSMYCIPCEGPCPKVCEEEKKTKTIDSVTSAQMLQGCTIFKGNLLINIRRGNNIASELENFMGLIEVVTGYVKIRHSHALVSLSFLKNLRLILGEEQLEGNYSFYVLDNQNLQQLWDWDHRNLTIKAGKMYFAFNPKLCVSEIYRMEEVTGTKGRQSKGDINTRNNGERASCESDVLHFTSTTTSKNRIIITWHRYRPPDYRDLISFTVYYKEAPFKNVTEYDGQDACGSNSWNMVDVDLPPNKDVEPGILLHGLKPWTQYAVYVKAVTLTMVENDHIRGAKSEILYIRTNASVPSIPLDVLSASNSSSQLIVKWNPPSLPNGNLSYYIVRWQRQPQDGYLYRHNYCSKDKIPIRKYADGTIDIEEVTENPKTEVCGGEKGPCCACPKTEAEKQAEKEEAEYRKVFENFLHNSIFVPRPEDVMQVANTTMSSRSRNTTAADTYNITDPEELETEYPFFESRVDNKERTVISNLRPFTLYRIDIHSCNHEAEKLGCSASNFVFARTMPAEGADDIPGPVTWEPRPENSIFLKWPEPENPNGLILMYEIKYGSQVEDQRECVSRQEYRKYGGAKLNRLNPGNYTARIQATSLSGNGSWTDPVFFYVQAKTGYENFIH
Description: Rat IR membrane preparation (I-9266) (IR) and human INS-like growth factor receptor (IGFR) (I-4657) were obtained from Sigma-Aldrich. The rat IR was a partially purified preparation in residual membrane and contained 250 units of activity as measured by its ability to catalyze the incorporation of 1 pmol per min of phosphate from γ-^32P-ATP into poly(Glu, Tyr), 4:1, at 30°C. The IGFR was recombinant, at least 95% pure by SDS-PAGE, and capable of binding INS-like growth factor. Both receptor preparations, in sum, retained activity.
(§1) Additions were made serially.
This serial addition method was also used to determine the binding of estradiol to IR and IGFR.

Glucagon = Glucagon (Homo sapiens, UniProt P01275); assay: UV spectroscopy binding to glucagon (control)
Glucagon, sequence (P01275 53-81): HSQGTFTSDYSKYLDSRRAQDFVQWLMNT

[11] = target: oxidized insulin B chain (Insulin beta chain) (Bos taurus, UniProt P01317); assay: UV spectroscopy binding to oxidized insulin B chain; conditions: read-out: Binding constant to individual oxidized INS B chain
oxidized insulin B chain (Insulin beta chain), sequence (P01317 25-54): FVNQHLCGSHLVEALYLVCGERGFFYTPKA
From the text: as §1

[12] = target: IR α 284–300 peptide of the human insulin receptor (Homo sapiens, UniProt P06213); assay: UV spectroscopy binding to insulin receptor peptide IR α 284–300
[13] = system: insulin receptor (IR) isolated from rat liver; assay: Enzyme-linked INS binding assay: effect of E2 on INS–HRP binding to IR
[14] = target: IR α 453–464 peptide of the human insulin receptor (Homo sapiens, UniProt P06213); assay: UV spectroscopy binding to insulin receptor peptide IR α 453–464
[15] = target: IR α 223–234 peptide of the human insulin receptor (Homo sapiens, UniProt P06213); assay: UV spectroscopy binding to insulin receptor peptide IR α 223–234
Human recombinant INS = assay: Capillary electrophoresis: E2 in solution with and without insulin; conditions: mean ± SD of the five EI/E ratios (10, 15, 20, 25, 30 kV)
[16] = target: oxidized insulin A chain (Insulin alpha chain) (Bos taurus, UniProt P01317); assay: UV spectroscopy binding to oxidized insulin A chain
oxidized insulin A chain (Insulin alpha chain), sequence (P01317 85-105): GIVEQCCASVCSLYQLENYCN

[17] = target: IR α 392–404 peptide of the human insulin receptor (Homo sapiens, UniProt P06213); assay: UV spectroscopy binding to insulin receptor peptide IR α 392–404
[18] = UV spectroscopy, peptide 100 nM in pH 7.4 phosphate buffer, 30 min room temperature, duplicates averaged
[19] = Binding constant to recombinant human INS, UV spectroscopy

With C[C@]12CC[C@@H]3c4ccc(O)cc4CC[C@H]3[C@@H]1CC[C@H]2O [17α-Estradiol] the Kd [1] was 10 µM and the “Binding to INS (in words), serial additions” value ([1]; UV spectroscopy, serial additions, even at 1 μM (Figure 2)) was “does not bind significantly”.

For C[C@]12CC[C@@H]3c4ccc(O)cc4CC[C@H]3[C@@H]1CC[C@@H]2O [17β-Estradiol (E2), 17β-Estradiol], the Kd [2, 18] is given as greater than 500 µM, the “Decrease of INS binding in cell culture” value (INS binding [3]) is given as ~ 20% and the Kd [4] is given as greater than 500 µM. For the same compound, the Kd [5] was 0.78 µM, the Kd [6] was 120 µM and the “Concentration of E2 in E2-saturated phosphate buffer in the presence of INS or IR” value [7] was “ca. 60 ng/ml”. The Kd [8] was 280 µM, the “Decrease of INS binding in rats” value (INS binding [9]) was no more than 50% and the Kd ([10]; read-out: Binding to IGFR, high affinity binding) was roughly 0.1 µM. For the same compound, the Kd ([10]; read-out: Kd to IGFR, lower affinity binding) was greater than 10 µM, the “Binding to glucagon (in words)” value (Glucagon) was “does not bind with measurable affinity” and the Kd [11] was 150 µM. The Kd [12] was 0.9 µM, the “Shift of INS–HRP/IR binding curve to the right” value ([13]; E2 incubated with either INS–HRP or the IR alone, E2 initially 200 nM, about 22 nM at curve mid-point, duplicates averaged) was “half” and the “Shift of INS–HRP/IR binding curve to the right” value ([13]; both the IR and INS–HRP exposed to E2, E2 about 22 nM at curve mid-point) was 0.8 log units. For the same compound, the Kd [14] was greater than 500 µM, the Kd [15] was greater than 500 µM and the “EI/E ratio, mean ± SD” value (Human recombinant INS) was 3.96 ± 0.45. For the same compound, the “Binding to the insulin A chain (in words), serial additions” value ([16]; UV serial addition, 1000 times the concentration of E2 used in Figure 2 (Figure 3)) was “no binding was apparent”, the Kd ([16]; read-out: Binding constant to individual oxidized INS A chain, UV spectroscopy) was 220 µM and the Kd [1] was 0.012 µM. The Kd ([1]; Binding constant (Kd) to INS, high affinity binding, UV spectroscopy) was ~0.012 µM and 0.012 µM, the Kd ([1]; read-out: Binding constant to INS, low affinity binding, UV spectroscopy, biphasic binding) was 65 µM and the Kd [17] was greater than 500 µM.

With C[C@]12CCC(=O)C=C1CC[C@@H]1[C@@H]2CC[C@]2(C)C(=O)CC[C@@H]12 [Andro-stenedione, 4-andro-stenedione] the Kd [2] was greater than 500 µM, the Kd [4] was greater than 500 µM and the Kd [5] was greater than 500 µM. For the same compound, the Kd [6] was greater than 500 µM, the Kd [8] was greater than 500 µM and the Kd [12] was greater than 500 µM. It also gave a Kd [14] greater than 500 µM, a Kd [15] greater than 500 µM and a Kd [1] of 13.5 µM. For the same compound, the Kd [17] was greater than 500 µM.

With CC(C)CCC[C@@H](C)[C@H]1CC[C@H]2[C@@H]3CC=C4C[C@@H](O)CC[C@]4(C)[C@H]3CC[C@]12C [Cholesterol] the Kd [4] was greater than 500 µM, the Kd [5] was greater than 500 µM and the Kd [6] was greater than 500 µM. It also gave a Kd [8] greater than 500 µM, a Kd [12] greater than 500 µM and a Kd [14] greater than 500 µM. For the same compound, the Kd [15] was greater than 500 µM, the Kd [1] was greater than 500 µM and the Kd [17] was greater than 500 µM.

Work on C[C@]12C[C@H](O)[C@H]3[C@@H](CCC4=CC(=O)CC[C@@]43C)[C@@H]1CC[C@@H]2C(=O)CO [Corticosterone] yielded a Kd [1] of 21.1 µM.

C[C@]12CC[C@@H]3c4ccc(O)cc4CC[C@H]3[C@@H]1C[C@@H](O)[C@@H]2O [Estriol] gave a Kd [2, 18] of 380 µM, a Kd [4] greater than 500 µM and a Kd [5] greater than 500 µM. For the same compound, the Kd [6] was greater than 500 µM, the Kd [8] was greater than 500 µM and the Kd [12] was greater than 500 µM. The Kd [14] was 390 µM, the Kd [15] was greater than 500 µM and the Kd [1] was greater than 500 µM. The Kd [1, 19] was greater than 500 µM and the Kd [17] was greater than 500 µM.

In the case of C[C@]12CC[C@@H]3c4ccc(O)cc4CC[C@H]3[C@@H]1CCC2=O [Estrone], the Kd [2, 18] is reported as greater than 500 µM, the Kd [4] is reported as greater than 500 µM and the Kd [5] is reported as greater than 500 µM. The Kd [6] was greater than 500 µM, the Kd [8] was greater than 500 µM and the Kd [12] was greater than 500 µM. For the same compound, the Kd [14] was greater than 500 µM, the Kd [15] was greater than 500 µM and the Kd [1] was 1.25 µM. The Kd [17] was greater than 500 µM.

For O=c1c(-c2ccc(O)cc2)coc2cc(O)cc(O)c12 [Genistein], the Kd [1] was greater than 500 µM and the “Binding to INS (in words)” value [1] was “negligible binding”.

In the case of C[C@]12CCC(=O)C=C1CC[C@@H]1[C@@H]2[C@@H](O)C[C@@]2(C)[C@H]1CC[C@]2(O)C(=O)CO [Hydrocortisone], the Kd [1] is reported as 63.5 µM.

In the case of CC(=O)[C@H]1CC[C@H]2[C@@H]3CC=C4C[C@@H](O)CC[C@]4(C)[C@H]3CC[C@]12C [Pregnenolone, 5-Pregnen-3β-ol-20-one], the Kd [2, 18] is reported as greater than 500 µM.

Compound CC(=O)[C@H]1CC[C@H]2[C@@H]3CCC4=CC(=O)CC[C@]4(C)[C@H]3CC[C@]12C [Progesterone] has a Kd [4] greater than 500 µM, a Kd [5] greater than 500 µM and a Kd [6] greater than 500 µM. For the same compound, the Kd [8] was greater than 500 µM, the Kd [12] was greater than 500 µM and the Kd [14] was greater than 500 µM. It also gave a Kd [15] greater than 500 µM, a Kd [1] greater than 500 µM and a Kd [17] greater than 500 µM.

For O=C(c1ccc(OCCN2CCCCC2)cc1)c1c(-c2ccc(O)cc2)sc2cc(O)ccc12 [Raloxifene, Raloxifene HCl], the Kd [1] was 130 µM, the Kd [1, 19] was 130 µM and the “Binding to INS (in words)” value [1] was “negligible binding”.

In the case of CC/C(=C(\c1ccccc1)c1ccc(OCCN(C)C)cc1)c1ccccc1 [Tamoxifen, Tamoxifen citrate salt], the Kd [1] is reported as greater than 500 µM and the “Binding to INS (in words)” value [1] is reported as “negligible binding”.

“insulin conjugated to horse-radish peroxidase (ligand)” gave a Kd (IR α 223–234 (human)) greater than 500 µM, a Kd (IR α 91–103 (human)) of 0.07 µM and a Kd (IR α 424–441 (human)) greater than 500 µM. For the same compound, the Kd (IR α 233–248 (human)) was 0.008 µM and the Kd (IR α 392–404 (human)) was 0.3 µM.
